Reference: publication PMC6688371, “Effect of the inhaled PDE4 inhibitor CHF6001 on biomarkers of inflammation in COPD” (Respiratory Research, 2019)
Where two headings read alike, the source gives them in different places. Marks after values point to notes of the source that are not given here.

Assay: Plasma pharmacokinetics at steady state (Day 32)
Assay type: in vivo, human
Conditions: for Tmax,ss / CL/F / Cmax / AUC(0-t): plasma on Day 32; for Tmax,ss: median (range); for CL/F / Cmax / AUC(0-t): both sexes, human, inhaled or intranasal, geometric mean (%CV); for AUC(0-t): read-out: AUC0–12,ss
Experimental: Induced sputum was collected pre-dose on Day 1 of each treatment period (for the first treatment period, the sample could be collected up to 10 days prior to Day 1), and 2 h post-dose on Days 20, 26 and 32 (see the Additional file 1 for further detail on sputum and blood analysis methods). Blood samples were taken pre-dose on Day 1, and pre-dose and at 30 min, and 1, 1.5, 2, 3, 4, 6, 8 and 12 h post-dose on Day 32. Other pre-dose assessments on Days 1 and 32 were spirometry (forced expiratory volume in 1 s [FEV1] and forced vital capacity [FVC]), forced oscillometry, and COPD Assessment Test (CAT), with Baseline Dyspnea Index recorded on Day 1 and Transition Dyspnea Index (TDI) on Day 32. Central and peripheral airways mechanics were assessed using forced oscillometry, with the following values determined: inspiratory and expiratory resistance (at 5 and 19 Hz), inspiratory and expiratory reactance, tidal expiratory flow limitation and the percentage of flow limited breaths.
The mean changes from baseline to Day 32 for lung function, CAT and TDI were analysed using similar methodology to sputum biomarkers, but were not log-transformed. […] The sputum concentration of CHF6001 was also evaluated at 2 h post-dose, using the mean of all values measured on Days 20, 26 and 32. Pharmacokinetic variables were summarised using geometric means and coefficients of variation, except for Tmax,ss, which is presented as median (range). […]
Validation procedures again followed those outlined for the analysis of biomarkers above. All […]
concentrations of biomarkers in human serum or plasma from regulatory studies.
Blood for the pharmacokinetic analysis was collected pre-dose and at 30 min, and 1, 1.5, 2, 3, 4, 6, 8 and 12 h post-dose on Day 32 of each treatment period. Samples were centrifuged at 2000 g for 15 min at 4C, with the resulting plasma shipped to the central laboratory at –60 […]
to –90C. The plasma concentration of CHF6001 was evaluated using a LC-MS/MS method following solid phase extraction. Validation procedures again followed those outlined for the analysis of biomarkers above. The bioanalytical method wa s found to be linear over the calibration range of 10 to 20,000 pg/mL. The precision and accuracy of the method was found to be within the target limits of within 20% at the lower limit of quantification 10 pg/mL and within 15% at all other concentrations.
The recovery of CHF6001 from human plasma was consistent across the analytical range , with no significant matrix effects. […]
for up to 24 h at the sample processing temperature (nominally +20C), a fter storage for 184 days in a freezer (nominally –80C) and after four freeze-thaw cycles at nominally – 80C / +20C. Therefore the method was considered to be suitable for measuring concentrations of CHF6001 in human plasma samples from regulatory studies.
The study was approved by two centralised ethics committees on behalf of the sites:
• UK: Health Research Authority, North West, Greater Manchester South Research Ethics Committee, Manchester (approval reference 16/NW/0553).
• Germany: Ethics Committee of Hesse Medical Association, Frankfurt am Main (approval reference FF 98/2016).
Patients had to meet all the following inclusion criteria to be eligible for enrolment into the […]
1. Written informed consent obtained prior to any study-related procedures;
2. Male or female aged ≥40 years;
3. A female was eligible to enter the study if they were of non-childbearing potential, i.e. physiologically incapable of becoming pregnant (e.g. postmenopausal women defined as being amenorrhoeic for ≥12 consecutive months without an alternative medical cause. If indicated, as per Investigator’s request, post -menopausal status

For CS(=O)(=O)Nc1ccc(C(=O)O[C@@H](Cc2c(Cl)c[n+]([O-])cc2Cl)c2ccc(OC(F)F)c(OCC3CC3)c2)cc1OCC1CC1 [CHF6001], the “Tmax,ss” value (800 μg BID inhaled) was 2.00 (0.50; 4.08)^a h, the “Tmax,ss” value (1600 μg BID inhaled) was 2.00 (0.48; 4.05)^b h and the “Systemic exposure in relation to dose” value (Day 32, 800 vs 1600 μg BID) was “broadly proportional to dose”. The CL/F (800 ug, 800 μg BID inhaled) was 603 mL/min, the Cmax (800 ug, 800 μg BID inhaled) was 2.44 ng/mL and the AUC(0-t) (800 ug, 800 μg BID inhaled) was 22.1 ng·h/mL. For the same molecule, the CL/F (1600 ug, 1600 μg BID inhaled) was 653 mL/min, the Cmax (1600 ug, 1600 μg BID inhaled) was 4.5 ng/mL and the AUC(0-t) (1600 ug, 1600 μg BID inhaled) was 40.8 ng·h/mL.
